{"source": "patent US11452694B2", "about": "“High concentration dosage forms of pridopidine” (PRILENIA NEUROTHERAPEUTICS LTD., priority 2017, dated 2022)", "origin": "cited, not measured here", "system": "neuroblastoma cell line", "conditions": "SIR-dependent manner"}
{"molecule": "CCCN1CCC(c2cccc(S(C)(=O)=O)c2)CC1", "note": "[Pridopidine, 4-(3-(Methylsulfonyl)phenyl)-1-propylpiperidine]", "values": [{"measurement": "secretion of brain-derived neurotrophic factor (BDNF)", "result": "enhance secretion"}]}
